Read-outs that look alike come from different tables or passages of the source.
Columns and labels:
[1] = target: T1, human glutaminase GLS1 (Homo sapiens, UniProt O94925); test: Catalysis of 2MeGln hydrolysis by GLS1 glutaminase; format: biochemical; settings: human GLS1
T1 construct: purchased Sigma SRP0516
T1 sequence (O94925 55-669): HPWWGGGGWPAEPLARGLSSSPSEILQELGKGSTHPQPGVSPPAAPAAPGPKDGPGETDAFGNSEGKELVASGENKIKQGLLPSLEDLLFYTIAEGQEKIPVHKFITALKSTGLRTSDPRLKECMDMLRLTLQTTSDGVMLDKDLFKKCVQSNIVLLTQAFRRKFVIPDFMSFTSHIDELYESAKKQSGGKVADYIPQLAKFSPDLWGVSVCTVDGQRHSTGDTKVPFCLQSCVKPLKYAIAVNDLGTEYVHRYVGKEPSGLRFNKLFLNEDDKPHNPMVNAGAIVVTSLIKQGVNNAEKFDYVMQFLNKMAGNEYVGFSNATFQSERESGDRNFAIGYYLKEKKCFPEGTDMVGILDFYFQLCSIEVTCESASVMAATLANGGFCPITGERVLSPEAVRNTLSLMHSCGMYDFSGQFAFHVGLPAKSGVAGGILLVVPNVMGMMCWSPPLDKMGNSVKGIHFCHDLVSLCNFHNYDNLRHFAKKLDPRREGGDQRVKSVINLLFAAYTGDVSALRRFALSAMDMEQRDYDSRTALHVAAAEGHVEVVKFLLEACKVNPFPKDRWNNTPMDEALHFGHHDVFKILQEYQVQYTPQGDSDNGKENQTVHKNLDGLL
Experimental: The procedure was adapted from an existing protocol. To a reaction mixture in a 1.5 mL microcentrifuge tube containing 10 mM rac-2MeGln or L-Gln-^13C2 in 100 mM phosphate pH 7.4 buffer made in 20% atom ^18O water, recombinant GLS1 (final concentration: 5 ng/mL) was added. The tubes were incubated in a preheated thermomixer at 37° C. and periodically shaken at 600 rpm (30 s on, 30 s off). 5 μL aliquots were collected in triplicate every 5 min and immediately diluted with 195 μL of cold 60% ACN containing 10 μM Glu-d5 and Gln-d5 as internal standards in a 96 well plate. After collecting all samples, the plate was shaken at 1000 rpm for 5 min at room temperature, and then stored at −80° C. Before analysis the plate was thawed and 10 μL aliquots of the extracted reaction mixtures were diluted with 190 μL of 90% acetonitrile.
The quantification of the newly formed 2MeGlu in the presence of the preexisting trace amounts was performed in the following way. Peak area ratio of Glu-^13C2 to Glu-^13C2^18O was calculated in all samples containing Glu-^13C2. The mean ratio value was then applied to calculate the hypothetical peak area of the newly formed 2MeGlu based on the directly measured 2MeGlu-^18O peak area. The ratio of the newly formed 2MeGlu peak area and the total 2MeGlu peak area was applied to calculate the concentration of the newly formed 2MeGlu from the total 2MeGlu concentration determined directly using the calibration curve.

[2] = test system: mouse cerebral synaptosomes; test: Synaptosomal neurotransmitter uptake assay; format: cell-based
Experimental: To each tube, 5 μL of a test compound solution (final concentration 10 μM) in Buffer KRP or Buffer KRP alone were added. Samples were incubated at 4° C. or 37° C. for 1, 10, or 30 min and then immediately centrifuged and washed twice by resuspension-centrifugation with Buffer S (0.5 mL). Resulting pellets were resuspended in 170 μL of 0.1% aqueous formic acid and mixed with 330 μL of ACN.
96-well plate experiments: 250 μL aliquots of the synaptosome suspension were transferred to two 0.8-mL 96 well plates, one on ice (0° C. samples only) and one in a thermoblock (37° C. samples only), and equilibrated for 10 min. 5 μL of a test compound (0.5 mM; final concentration: 10 μM) in Buffer KRP or Buffer KRP blank were added 10, 20 or 30 min before the incubation termination. “0 min” samples were prepared by placing the test compound solution in a separate pre-chilled V-shape bottom 2-mL 96 well plate; at the end of incubation 200 μL aliquots of all samples were transferred to the 2-mL 96 well plate and centrifuged (2,500 g for 15 min at 4° C.) immediately. The resulting pellets were rinsed with Buffer KRP, followed by centrifugation, twice, then resuspended in 200 μL of 60% ACN containing 2.5 μM Glu-d5 as internal standard and stored at −80° C. until analysis.
(§1) Synaptosome uptake and high potassium-induced release assays were performed as described in Example 1. Uptake assays used 250 μL aliquots of the synaptosome suspension transferred to a pre-chilled 0.8 mL 96 well plate. 5 μL of a test compound solution (0.5 mM; final concentration: 10 μM to compare directly to our previous work was added to each well and incubated at 0° C. or 37° C. After 10, 20 or 30 min, samples were chilled on ice and immediately sedimented (2,500 g for 15 min at 4° C.) and washed with Buffer S (0.5 mL, ×2). Resulting pellets were resuspended in 200 μL of 60% ACN containing 5 μM GABA-d6 and stored at −80° C. until analysis. Potassium-induced release assay used 500 μL aliquots of the synaptosome suspension transferred to pre-chilled microcentrifuge tubes. 2.5 μL of a test compound solution (20 mM; final concentration: 100 μM) in Buffer KRP was added to each tube and incubated for 15 min at 37° C., briefly chilled on ice, and then immediately sedimented (8,000 g for 4 min at 4° C.) and washed with Buffer KRP, followed by centrifugation, twice. The resulting pellets were resuspended in 500 μL of Buffer KRP or Buffer K-KRP and incubated for 5, 10 or 15 min at 37° C., sedimented (8,000 g for 4 min at 4° C.), and washed with Buffer KRP. Resulting pellets were resuspended in 400 μL of 60% ACN containing 2.5 μM GABA-d6 as internal standard and stored at −80° C. until analysis.

[3] = test system: mouse cerebral synaptosomes; test: Potassium-induced neurotransmitter release assay; format: cell-based; settings: for synaptosome total GABA concentration following preincubation: 100 μM preincubation 15 min 37° C., vehicle 9.5±0.2; for reduction of synaptosome 4APA concentration by K+-induced membrane depolarization: 40 mM K+ vs 5 mM K+, 15 min; for endogenous GABA displaced in synaptosomes: once incorporated into synaptosomes
Experimental: To each tube, 2.5 μL of a test compound solution (final concentration 100 μM) in Buffer KRP or Buffer KRP alone were added. Samples were incubated for 15 min at 37° C., briefly chilled on ice, and then immediately centrifuged and washed twice with Buffer KRP. The resulting pellets were then resuspended in either Buffer KRP (500 μL) or Buffer K-KRP (500 μL). Samples were immediately centrifuged or incubated for 5, 10 or 15 min at 37° C., then centrifuged and washed with Buffer KRP. Resulting pellets were resuspended in 400 μL of 60% ACN containing 2.5 μM Glu-d5 and 2.5 μM Gln-d5 as internal standards.
as §1

[4] = test system: mouse hippocampal slice cultures; test: Kainic acid neurodegeneration in hippocampal slice cultures (propidium iodide); format: cell-based
Experimental: We employed a standard technique of ex vivo experimentation to determine the efficacy of 2MeGlu, 2MeGln, and 4APA to prevent neurodegeneration. Mouse hippocampal slice cultures were prepared and then exposed to one of the three test compounds at either 5 or 50 μM for one hour. Then media was changed to contain either 2 or 5 μM kanic acid (KA) for 24 hr. […] After 24, the amount of neurodegeneration was assayed with propidium iodide staining. Increasing the dose of KA led to greater neurodegeneration at 5 μM than at 2 μM.

[5] = Metabolism in synaptosomes (GABA shunt, glutamate-glutamine cycle); format: in vitro ADME; settings: mouse, mouse cerebral synaptosomes; synaptosomes preincubated with 100 μM, normal KRP buffer, 37° C.; read-out: synaptosomal concentration, estimated half life
Experimental: To each tube, a 5 μL aliquot of a test compound solution (final concentration 100 μM) in Buffer KRP or Buffer KRP alone were added. The samples were incubated for 15 min at 37° C., briefly chilled on ice, and then immediately centrifuged and washed twice by resuspension-centrifugation with Buffer S (0.5 mL). The pellets were then resuspended in Buffer KRP (500 μL). Samples were then immediately centrifuged or incubated for 5, 10, 15, 20, 25 or 30 min at 37° C. and then centrifuged and washed by resuspension-centrifugation with Buffer S (0.5 mL). Resulting pellets were resuspended in 170 μL of 0.1% aqueous formic acid, mixed with 330 μL of ACN.
To each tube, 5 μL of 2MeGlu solution (final concentration 100 μM) in Buffer KRP or Buffer KRP alone were added. The samples were incubated for 15 min at 37° C., briefly chilled on ice, and then immediately centrifuged and washed twice by resuspension-centrifugation with Buffer S (0.5 mL). The pellets were then resuspended in Buffer KRP (200 μL). Samples were then kept on ice or incubated for 10, 20, 30, 40 or 50 min at 37° C. and then chilled on ice. Then all samples were centrifuged, 200 μL of supernatants were collected, and the pellets were suspended in 200 μL of 80% ACN. Supernatants and pellet suspensions were diluted with 250 μL of ACN and 50 μL of 10 μM d5-Glu in water as internal standard.

[6] = test system: C57Bl/6 mice; format: in vivo; settings: for mortality after single dose: mouse, in vivo; for distance moved in the novel cage: single 100, 300, or 900 mg/kg IP, dose- and time-dependent
Experimental: Dosing: (R)-2MeGlu (30, 100, 300, or 900 mg/kg), (S)-2MeGlu (30, 100, 300, or 900 mg/kg), rac-2MeGln (30, 100, 300, or 900 mg/kg) and vehicle (PBS) were administered at 10 ml/kg IP dosing volume. Three mice were dosed once with the assigned drug (100, 300, or 900 mg/kg) or vehicle and immediately placed in a new cage for novel cage observation. Subsequently, six mice were dosed once with the assigned drug (30 or 100 mg/kg) or vehicle and tested by SHIRPA, activity chamber, and then hot plate tests.
The mouse was dosed and immediately placed in the center of a clean, Innovive disposable rat cage with bedding (dimensions: 17″L×13.4″W×7.8″H) and allowed to move freely while being tracked automatically. Mice were monitored with Ethovision XT tracking software for the distance moved and average velocity during the 60-minute trial. They were returned to their home cage after the test. A new cage was used for each mouse.
Exploratory behavioral tests were performed exactly as previously described by us using 2-month-old C57Bl/6 male mice, Example 1. First, we assessed safety and tolerability of acute exposure to 4APA enantiomers in 22 mice by novel cage observation at 100, 300, or 900 mg/kg IP compared to vehicle (PBS) IP (n=3 or 4 mice per group without sample calculation, based on our previous study. Next, we evaluated 24 drug naïve mice with a 23-measure battery of neurologic dysfunction in mice (SHIRPA) (Rogers et al., 2001), automated activity chamber assessment, and hot plate latency acutely following 30 or 100 mg/kg IP compared to vehicle IP (n=4 or 5 mice per group). No exclusion criteria were predetermined and no randomization was performed to allocate subjects in the study.

[7] = test system: Line 61 mice; test: Transgenic α-synuclein mouse model, tapered beam test; format: in vivo
Source text: Line 61 mice overexpress human α-synuclein under control of the mouse Thy-1 promoter. The transgene is X-linked so females have variable transgene expression; for this reason, we focused on male mice. […] Categorical data from the tapered beam task were unblinded and analyzed by X square test (P<0.005).

Row | SMILES | synaptosome concentration, % of (R)-4APA ([2]; 10 μM, 30 min at 37° C.) | synaptosome total GABA concentration following preincubation [3] | reduction of synaptosome 4APA concentration by K+-induced membrane depolarization [3] | endogenous GABA displaced in synaptosomes [3] | mortality after single dose [6] | distance moved in the novel cage [6] | further results
1 | C[C@](N)(CCC(N)=O)C(=O)O [(S)-2MeGln, (S)-2-methylglutamine] | – | – | – | – | – | – | substrate of GLS1 (hydrolysis to 2MeGlu) [1]: substrates
2 | CC(N)CCC(=O)O (racemic) [rac-4APA, (rac)-4-Aminopentanoic acid] | 78.5±3.8% | 4.4±0.4 nmol/mg protein | 62.2±8.6% | about 55% | – | – | transport into synaptosomes ([2]; 10 μM substrate, 37° C.): transported into synaptosomes; synaptosome Glu concentration ([3]; preincubation with compound): not significantly changed; potassium-induced release from synaptosomes ([3]; preloaded with 100 μM for 15 min at 37° C., high-potassium depolarization): high potassium concentration-dependent release; neuroprotection ([4]; 5 or 50 μM compound): not neuroprotective
3 | CC(N)(CCC(=O)O)C(=O)O (racemic) [rac-2MeGlu, rac-2-Methylglutamic acid] | – | – | – | – | – | – | half-life at 100 μM [5]: 21 min; reduction of neurodegeneration ([4]; 50 μM compound, lower dose of KA (2 μM)): approximately 50%; neuroprotection at the higher dose of KA ([4]; 5 or 50 μM compound, 5 μM KA): Neither dose of 2MeGlu or 2MeGln was neuroprotective
4 | C[C@H](N)CCC(=O)O [(S)-4APA, (S)-4-aminopentanoic acid] | 22.8±0.8% | 6.0±0.6 nmol/mg protein | did not significantly reduce | approximately 30% | no mouse died | significantly decreased | –
5 | C[C@@H](N)CCC(=O)O [(R)-4APA, (R)-4-aminopentanoic acid] | – | 3.8±0.5 nmol/mg protein | 55.3±6.8% | about 55% | no mouse died | significantly decreased | synaptosome concentration of 4APA ([2]; 10 μM, 30 min at 37° C.): 9.3±0.6 nmol/mg protein; synaptosome uptake, faster than (S)-4APA ([2]; mouse synaptosomes): 4- to 5 fold; time post injection until not significantly different from vehicle, novel cage ([6]; 300 mg/kg IP): 13 min; time post injection until not significantly different from vehicle, novel cage ([6]; 900 mg/kg IP): 42 min; body weight or deaths ([7]; 5 or 50 mg/kg/d IP, seven days): no change in body weight or deaths; motor function, tapered beam ([7]; 7 days IP, high dose (50 mg/kg/d) S-2MeGlu, either dose (5 or 50 mg/kg/d) R-4APA): improved motor function similar to WT mice; α-synuclein accumulation in brain by immunohistochemistry vs vehicle ([7]; Line 61 mice): no significant change
